US20230242887A1, “ONCOLYTIC VIRUS CARRYING E-CADHERIN AND USES THEREOF” (Ohio State Innovation Foundation, priority 2017, published 2023)

How the values were obtained:
OV-Q1 = assay: Viral replication inhibition assay (HSV-1 genome copies by real-time PCR); type: cell-based; details: Human alphaherpesvirus 1, GLI36, 48 h, read-out: IC50 of inhibition of OV-Q1 replication
Experimental: (§1) FIGS. 12A-12B illustrate the safety test for OV-CDH1. FIG. 12(A) illustrates that Gli36 cells were infected with OV-Q1 or OV-CDH1 at a MOI of 5. Two hours after infection, the infection media were replaced with fresh media with increasing concentrations of Acyclovir. Forty-eight hours after infection, the cells were harvested for DNA extraction. The HSV-1 genome copy numbers in OV-Q1 and OV-CDH1 infected cells were measured by real-time PCR with primers and a probe against gD. The copy number vs. dose curves were established to evaluate the inhibitory effect of Acyclovir against oHSV replication (n=3). FIG. 12(B) illustrates survival curves of BLAB/c mice treated with wild-type HSV-1 (F strain), OV-Q1 or OV-CDH1 at the dose of 1×10^6 via i.c. or i.v injections.
(§2) OV-Q1 and OV-CDH1 both carry the HSV-1 TK gene, which makes the viruses sensitive to the antiviral acyclovir and its derivatives. […] For evaluating the in vivo safety of OV-CDH1, BALB/c mice were intravenously (i.v.) or i.c. injected with wild-type HSV-1 (F strain), OV-Q1, or OV-CDH1 at the dose of 1×10^6 PFU, which is the maximum dose due to the limited administration volume for i.c. injection. […] Mice treated with OV-Q1 and OV-CDH1 through i.v. or i.c. injections all survived over 4 weeks until they were euthanized and not monitored further (FIG. 12B). […]

OV-CDH1 = assay: as above; type: cell-based; details: Human alphaherpesvirus 1; Gli36 cells, MOI of 5, 48 h
Experimental: as §1, §2

Nc1nc2c(ncn2COCCO)c(=O)[nH]1 [acyclovir]
IC50 (OV-Q1): 1670 nM
IC50 (OV-CDH1): 2670 nM
